# Source: patent US20110300129A1, “SYSTEMS AND METHODS FOR ENHANCING VACCINE EFFICACY” (UNIVERSITY OF ROCHESTER, priority 2008, published 2011)
# Experiments:
# peripheral blood B cells [1] = settings: Morikawa et al. 2005; cited from earlier work
# [2] = test system: purified human B lymphocytes; experiment: Antibody production, IgM and IgG ELISA of B cell supernatants; type: cell-based; settings: 6 days
# Experimental: Antibody Production: Purified human B lymphocytes (5×10^5 cells/ml) were cultured in 96-well round-bottom microtiter plates. […] Pilot experiments were performed to optimize the doses of PPARγ and RXR ligands. […] Supernatants were harvested and the concentrations of IgM and IgG were analyzed using human-specific ELISAs (Bethyl Laboratories).
# purified human B cells = experiment: B cell proliferation, CFSE cell division by flow cytometry; type: cell-based; settings: CpG-activated B cells, 5 days; for cell division compared to vehicle control: Rosiglitazone 0.5 μM, 15d-PGJ2 0.2 μM
# Experimental: Proliferation: For cell division, a CellTrace™ CFSE Cell Proliferation Kit (Invitrogen, Carlsbad, Calif.) was used according to the manufacturer's protocol. Briefly, cells were labeled with 0.5 μM CFSE (carboxyfluorescein diacetate succinimidyl ester) for 15 minutes at 37° C., followed by two washes with 1×PBS, and then resuspended in RPMI culture media containing 10% FBS. Cells were then plated at a density of 1×10^5 cells/well in a 96-round bottom plate. Five days later, cells were acquired using a BD Biosciences FACS Calibur flow cytometer and analyzed using FlowJo software (Tree Star, Inc. Ashland, Oreg.).
# Five days after activation, cells were analyzed by flow cytometry. […] FIG. 2B illustrates the percent of cell division for three different B cell donors.
# human B cells = experiment: B cell viability (7-AAD incorporation, cell size, 3H-thymidine incorporation); type: cell-based; settings: Rosiglitazone 0.5 μM, 15d-PGJ2 0.2 μM; pilot experiments
# peripheral blood B cells [3] = experiment: Plasma cell differentiation, CD38/CD27 surface labeling by flow cytometry; type: cell-based, human; settings: for percentage of CD38highCD27high B cells (plasma cells): Rosiglitazone 0.5 μM, 15d-PGJ2 0.2 μM
# Experimental: Intracellular and Surface Labeling: B cells were incubated with mouse anti-human CD19-APC (BD Biosciences), anti-human CD38-PE (BD Biosciences) and/or anti-human CD27-APC (BD Biosciences) in cold PBS with sodium azide (0.02%) and BSA (0.3%) for 20 min at 20° C. COX-2 intracellular staining was performed as described previously (Padilla et al., “Human B Lymphocytes and B Lymphomas Express PPAR-γ and Are Killed by PPAR-γ Agonists,” Clin Immunol 103:22-33 (2002), which is hereby incorporated by reference in its entirety). All samples were acquired on a BD Biosciences FACS Calibur flow cytometer and analyzed using FlowJo software (Tree Star, Inc. Ashland, Oreg.).
# Peripheral-blood B lymphocytes include both naive and memory B cell populations. These two B cell subsets can be distinguished based on CD27 expression, which is a marker of memory B cells (Agematsu et al., “CD27: A Memory B-cell Marker,” Immunol Today 21:204-206 (2000), each of which is hereby incorporated by reference in its entirety).
# [4] = test system: Cox-2 expression in B cells; experiment: Cox-2 intracellular staining of CD19+ B cells, flow cytometry; type: cell-based, human; settings: CpG 1 μg/ml; Rosiglitazone 0.5 μM, 15d-PGJ2 0.2 μM; 3% untreated
# Experimental: Intracellular and Surface Labeling: B cells were incubated with mouse anti-human CD19-APC (BD Biosciences), anti-human CD38-PE (BD Biosciences) and/or anti-human CD27-APC (BD Biosciences) in cold PBS with sodium azide (0.02%) and BSA (0.3%) for 20 min at 20° C. […] All samples were acquired on a BD Biosciences FACS Calibur flow cytometer and analyzed using FlowJo software (Tree Star, Inc. Ashland, Oreg.).
# Therefore, the levels of Cox-2 expression were evaluated following PPARγ ligand treatment.
# [5] = test system: BLIMP-1 expression in B cells; experiment: BLIMP-1 expression in B cells, Western blot densitometry; type: cell-based, human; settings: for BLIMP-1 induction over CpG-treated cells (densitometry): CpG 1 μg/ml plus ligand, 72 hrs
# Experimental: Western Blots: Whole cell extracts were collected using ELB buffer (50 mM HEPES (pH 7), 250 mM NaCl, 0.1% Nonidet P-40, 5 mM EDTA, 10 mM NaF, 0.1 mM Na3VO4, 50 μM ZnCl2, supplemented with 0.1 mM PMSF, 1 mM DTT, and a mixture of protease and phosphatase inhibitors) and total protein was quantified using bicinchoninic acid protein assay (BCA assay kit) (Pierce, Rockford, Ill.). Twenty-five micrograms of protein was electrophoresed on 8-16% Precise™ protein gels (Pierce, Rockford, Ill.) and transferred to polyvinylidene fluoride (PVDF) membrane (Millipore, Billerica, Mass.). The membranes were analyzed for immunoreactivity with the indicated primary antibody, washed and then incubated with an appropriate horseradish peroxidase-conjugated secondary antibody. The membranes were visualized by chemiluminescence using an ECL kit (Pierce, Rockford, Ill.).
# Lastly, BLIMP-1 expression was evaluated. BLIMP-1 is a transcription factor important in B cell differentiation (Shaffer et al., “Blimp-1 Orchestrates Plasma Cell Differentiation by Extinguishing the Mature B Cell Gene Expression Program,” Immunity 17:51-62 (2002), which is hereby incorporated by reference in its entirety). […] When B cells were treated with a combination of CpG and PPARγ ligands, there was a further increase in BLIMP-1 expression.
# PPARγ = target: T1, PPARγ (Homo sapiens, UniProt P37231); experiment: PPARγ gene reporter analysis (PPRE-luciferase) in transfected B cells; type: cell-based; settings: CpG-activated B cells, 24 h treatment; Rosiglitazone 0.5 μM, 15d-PGJ2 0.2 μM
# T1 construct: normal B cells were transfected with a PPARγ luciferase reporter construct; endogenous in cells
# T1 sequence (P37231 1-505): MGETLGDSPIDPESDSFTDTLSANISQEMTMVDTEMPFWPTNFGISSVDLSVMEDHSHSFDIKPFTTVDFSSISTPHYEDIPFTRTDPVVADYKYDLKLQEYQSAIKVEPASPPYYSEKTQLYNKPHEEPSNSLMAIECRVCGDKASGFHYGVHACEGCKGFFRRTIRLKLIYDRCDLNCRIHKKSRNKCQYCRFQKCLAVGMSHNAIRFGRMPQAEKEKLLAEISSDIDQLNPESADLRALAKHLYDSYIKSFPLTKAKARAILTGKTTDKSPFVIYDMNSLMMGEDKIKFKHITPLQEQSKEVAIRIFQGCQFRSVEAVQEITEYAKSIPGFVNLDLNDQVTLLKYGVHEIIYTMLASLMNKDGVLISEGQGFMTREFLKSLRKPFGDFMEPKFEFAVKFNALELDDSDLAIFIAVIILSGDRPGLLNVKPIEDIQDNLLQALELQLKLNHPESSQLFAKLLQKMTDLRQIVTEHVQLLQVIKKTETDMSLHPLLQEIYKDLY
# Experimental: Twenty-four hours after treatments, luciferase activity was assayed using the Promega Luciferase Assay System (Madison, Wis.). Relative light units (RLU) were determined with a Lumicount Microplate Luminometer (Packard Instrument Co., Meriden, Conn., USA). Relative light units (RLU) were normalized to transfection efficiency that was monitored by cotransfection of GFP expression vector.
# To test whether the PPARγ ligand concentrations used here activated PPARγ, normal B cells were transfected with a PPARγ luciferase reporter construct.
# [6] = CpG 1 μg/ml, 5 days, 9-cis-RA 100 nM
smiles,measurement,setting,value
"CC1=C(/C=C/C(C)=C/C=C/C(C)=C/C(=O)O)C(C)(C)CCC1 [ATRA, all-trans-retinoic acid]",CD38 expression,peripheral blood B cells [1],induces CD38 expression
same,antibody production,peripheral blood B cells [1],increases antibody production
CS(=O)(=O)c1ccc(-n2nc(C(F)(F)F)cc2-c2ccc(F)cc2)cc1 [SC-58125],IgG production of CpG-stimulated B cells,[2]; addition of SC-58125 10 μM,significantly reduced
same,IgM production of CpG-stimulated B cells,[2]; addition of SC-58125 10 μM,significantly reduced
same,increased antibody production upon PPARγ ligand treatment,"[2]; addition of SC-58125 10 μM, CpG",significantly reduced
"CN(CCOc1ccc(CC2SC(=O)NC2=O)cc1)c1ccccn1 (stereo not shown) [Rosiglitazone, 5-[4-[2-[N-methyl-N-(2-pyridyl)amino]ethoxy]benzyl]thiazolidine-2,4-dione]",cell division compared to vehicle control,purified human B cells,increased cell division
same,cell viability,human B cells,did not adversely affect cell viability
same,percentage of CD38highCD27high B cells (plasma cells),peripheral blood B cells [3]; [6],10.7±1.6%
same,percentage of B cells which express Cox-2,[4],36%
same,BLIMP-1 induction over CpG-treated cells (densitometry),[5],~6 fold
"CC1=C(/C=C/C(C)=C\C=C\C(C)=C\C(=O)O)C(C)(C)CCC1 [9-cis-RA, 9-cis-retinoic acid]",percentage of dividing cells,"purified human B cells; ligand alone, 9-cis-RA 100 nM",increased the percentage of dividing cells
same,IgG production over vehicle control,[2]; CpG-activated cells,significantly induced
same,IgM production over vehicle control,[2]; CpG-activated cells,significantly induced
same,"CD38highCD27high cells, fold over vehicle","peripheral blood B cells [3]; CpG 1 μg/ml, 5 days",~1.7 fold
same,"CD38highCD27low cells, fold vs. CpG plus vehicle","peripheral blood B cells [3]; CpG 1 μg/ml, 5 days",~3.5 fold
same,percentage of CD38-expressing naive B cells (CD38highCD27low),peripheral blood B cells [3]; [6],30.2±5.5%
same,percentage of CD38highCD27high B cells (plasma cells),peripheral blood B cells [3]; [6],10.3±1.9%
O=C(Nc1ccccc1)c1cc([N+](=O)[O-])ccc1Cl [GW9662],effects of PPARγ ligands on IgG production,"[2]; with GW9662 500 nM, CpG",abolished
same,PPARγ ligand-induced CD38 expression in memory B cells,"peripheral blood B cells [3]; with GW9662 500 nM, CpG",attenuated
same,expression of BLIMP-1 compared to CpG alone,[5]; CpG and GW9662 500 nM,decrease
same,increase in BLIMP-1 by Rosiglitazone and 15d-PGJ2,"[5]; CpG-activated B cells, with GW9662 500 nM",dramatically attenuated
"CCCCCC=CC=C1C(=O)C=C[C@@H]1CC=CCCCC(=O)O [15d-PGJ2, 15-deoxy-Δ^12,14 Prostaglandin J2]",cell division compared to vehicle control,purified human B cells,increased cell division
same,cell viability,human B cells,did not adversely affect cell viability
same,luciferase activity (PPRE reporter),PPARγ,increased luciferase activity
same,"CD38highCD27high cells, fold over vehicle","peripheral blood B cells [3]; CpG 1 μg/ml, 5 days",~2 fold
same,percentage of CD38highCD27high B cells (plasma cells),peripheral blood B cells [3]; [6],12.5±1.4%
same,percentage of B cells which express Cox-2,[4],43%
same,BLIMP-1 induction over CpG-treated cells (densitometry),[5],~9 fold
